Data set [1] has as its system HepG2 cells. Description: Mitochondria toxicity assay (L-lactic acid assay). Format: cell-based. To be noted: Conc. 10 μM, 4 day drug exposure. As for the experimental part:
HepG2 cells were cultured in 12-well plates as described above and exposed to various concentrations of drugs as taught by Pan-Zhou X-R, Cui L, Zhou X-J, Sommadossi J-P, Darley-Usmer V M. “Differential effects of antiretroviral nucleoside analogs on mitochondrial function in HepG2 cells” Antimicrob Agents Chemother 2000; 44:496-503. Lactic acid levels in the culture medium after 4 day drug exposure was measured using a Boehringer lactic acid assay kit. Lactic acid levels were normalized by cell number as measured by hemocytometer count.

In data set [2] the test system is MDBK. The data set can be described thus: Cytotoxicity assay (sulforhodamine B, CC50), MDBK. It counts as cell-based. To be noted: MDBK cells, 4 days incubation. As for the experimental part: (§1) Cells were seeded at a rate of between 5×10^3 and 5×10^4/well into 96-well plates in growth medium overnight at 37° C. in a humidified CO2 (5%) atmosphere. New growth medium containing serial dilutions of the drugs was then added. After incubation for 4 days, cultures were fixed in 50% TCA and stained with sulforhodamineB. The optical density was read at 550 nm. The cytotoxic concentration was expressed as the concentration required to reduce the cell number by 50% (CC50).

Data set [3] deals with Human Hepatoma. Description: Cytotoxicity assay (sulforhodamine B, CC50), Human Hepatoma. It counts as cell-based. To be noted: 4 days incubation. As for the experimental part:
as §1

Data set [4] concerns BVDV (strain NADL). Description: Cell Protection Assay (CPA). Format: cell-based, Bovine Viral Diarrhea virus. As for the experimental part:
The assay was performed essentially as described by Baginski, S. G.; Pevear, D. C.; Seipel, M.; Sun, S. C. C.; Benetatos, C. A.; Chunduru, S. K.; Rice, C. M. and M. S. Collett “Mechanism of action of a pestivirus antiviral compound” PNAS USA 2000, 97(14), 7981-7986. MDBK cells (ATCC) were seeded onto 96-well culture plates (4,000 cells per well) 24 hours before use. After infection with BVDV (strain NADL, ATCC) at a multiplicity of infection (MOI) of 0.02 plaque forming units (PFU) per cell, serial dilutions of test compounds were added to both infected and uninfected cells in a final concentration of 0.5% DMSO in growth medium. Each dilution was tested in quadruplicate. Cell densities and virus inocula were adjusted to ensure continuous cell growth throughout the experiment and to achieve more than 90% virus-induced cell destruction in the untreated controls after four days post-infection. After four days, plates were fixed with 50% TCA and stained with sulforhodamine B. The optical density of the wells was read in a microplate reader at 550 nm. The 50% effective concentration (EC50) values were defined as the compound concentration that achieved 50% reduction of cytopathic effect of the virus. FIGS. 4 and 5 provide a graphical illustration of the methodology used to arrive at the 50% effective concentration (EC50) values for β-D-2′-CH3-riboG and ribavirin. FIG. 6 compares the results of the CPA for β-D-2′-CH3-riboG, β-D-2′-CH3-riboC, riboU, β-D-2′-CH3-riboA and ribavirin

The test system of data set [5] is HepG2 cells. Description: Phosphorylation assay of nucleoside to active triphosphate. Format: in vitro ADME. To be noted: 10 μM [3H] labeled compound. As for the experimental part: To determine the cellular metabolism of the compounds, HepG2 cells were obtained from the American Type Culture Collection (Rockville, Md.), and were grown in 225 cm^2 tissue culture flasks in minimal essential medium supplemented with non-essential amino acids, 1% penicillin-streptomycin. The medium was renewed every three days, and the cells were subcultured once a week. After detachment of the adherent monolayer with a 10 minute exposure to 30 mL of trypsin-EDTA and three consecutive washes with medium, confluent HepG2 cells were seeded at a density of 2.5×10^6 cells per well in a 6-well plate and exposed to 10 μM of [^3H] labeled active compound (500 dpm/pmol) for the specified time periods. The cells were maintained at 37° C. under a 5% CO2 atmosphere. At the selected time points, the cells were washed three times with ice-cold phosphate-buffered saline (PBS). Intracellular active compound and its respective metabolites were extracted by incubating the cell pellet overnight at −20° C. with 60% methanol followed by extraction with an additional 20 μL of cold methanol for one hour in an ice bath. The extracts were then combined, dried under gentle filtered air flow and stored at −20° C. until HPLC analysis.

The subject of data set [6] is Human bone marrow cells (CFU-GM). Description: Human bone marrow toxicity, CFU-GM clonogenic assay. Format: cell-based. To be noted: human bone marrow colony formation, 14 to 18 days; read-out: IC50 CFU-GM. From the text:
(§2) Human bone marrow cells were collected from normal healthy volunteers and the mononuclear population was separated by Ficoll-Hypaque gradient centrifugation as described previously by Sommadossi J-P, Carlisle R. “Toxicity of 3′-azido-3′-deoxythymidine and 9-(1,3-dihydroxy-2-propoxymethyl)guanine for normal human hematopoietic progenitor cells in vitro” Antimicrobial Agents and Chemotherapy 1987; 31:452-454; and Sommadossi J-P, Schinazi R F, Chu C K, Xie M-Y. “Comparison of cytotoxicity of the (−)- and (+)-enantiomer of 2′,3′-dideoxy-3′-thiacytidine in normal human bone marrow progenitor cells” Biochemical Pharmacology 1992; 44:1921-1925. The culture assays for CFU-GM and BFU-E were performed using a bilayer soft agar or methylcellulose method. Drugs were diluted in tissue culture medium and filtered. After 14 to 18 days at 37° C. in a humidified atmosphere of 5% CO2 in air, colonies of greater than 50 cells were counted using an inverted microscope. The results in Table 4 are presented as the percent inhibition of colony formation in the presence of drug compared to solvent control cultures.

The test system of data set [7] is Human bone marrow cells (BFU-E). The data set can be described thus: Human bone marrow toxicity, BFU-E clonogenic assay. It counts as cell-based. To be noted: human bone marrow colony formation, 14 to 18 days.
Text: as §2

In data set [8] the test system is BVDV. Description: Plaque Reduction Assay. It counts as cell-based, Bovine Viral Diarrhea virus. As for the experimental part: For each compound the effective concentration was determined in duplicate 24-well plates by plaque reduction assays. Cell monolayers were infected with 100 PFU/well of virus. Then, serial dilutions of test compounds in MEM supplemented with 2% inactivated serum and 0.75% of methyl cellulose were added to the monolayers. Cultures were further incubated at 37° C. for 3 days, then fixed with 50% ethanol and 0.8% Crystal Violet, washed and air-dried. FIG. 7 is a graphical illustration of the results from the Plaque Reduction Assay. FIG. 8 is an image of BVDV plaque formation in the presence of increasing concentrations of β-D-2′-CH3-riboU.
In general terms: In a plaque reduction assay, fewer plaques than in the control indicate reduced infectivity or spread.

Data set [9] relates to BVDV (NADL strain). Description: Yield Reduction Assay. Format: cell-based, Bovine Viral Diarrhea virus. As for the experimental part:
The assay was performed as described by Baginski, S. G.; Pevear, D. C.; Seipel, M.; Sun, S. C. C.; Benetatos, C. A.; Chunduru, S. K.; Rice, C. M. and M. S. Collett “Mechanism of action of a pestivirus antiviral compound” PNAS USA 2000, 97(14), 7981-7986, with minor modifications. Briefly, MDBK cells were seeded onto 24-well plates (2×10^5 cells per well) 24 hours before infection with BVDV (NADL strain) at a multiplicity of infection (MOI) of 0.1 PFU per cell. Serial dilutions of test compounds were added to cells in a final concentration of 0.5% DMSO in growth medium. Each dilution was tested in triplicate. After three days, cell cultures (cell monolayers and supernatants) were lysed by three freeze-thaw cycles, and virus yield was quantified by plaque assay. Briefly, MDBK cells were seeded onto 6-well plates (5×10^5 cells per well) 24 h before use. Cells were inoculated with 0.2 mL of test lysates for 1 hour, washed and overlaid with 0.5% agarose in growth medium. After 3 days, cell monolayers were fixed with 3.5% formaldehyde and stained with 1% crystal violet (w/v in 50% ethanol) to visualize plaques. FIG. 9 is a graphical illustration of the results from the Yield Reduction Assay. FIG. 8 is an image of BVDV yield reduction in the presence of increasing concentrations of β-D-2′-CH3-riboC.

Data set [10] concerns Bovine Viral Diarrhea virus (BVDV). Description: microbe, parasite or virus in culture. Format: cell-based. To be noted: read-out: BVDV EC50.
Data set [11] has as its system YFV-17D. The data set can be described thus: microbe, parasite or virus in culture. Format: cell-based, Yellow fever virus vaccine strain 17D. To be noted: Table 12; reduce the plaque number by 50%; YFV-BHK; read-out: YFV EC50.
Data set [12] deals with MDBK cells.
For data set [13], the system named is various cell systems.
Setting [14] is: HepG2 cells, read-out: CC50 HepG2.
Setting [15] is: Huh7 cells, read-out: CC50 Huh7.
The mark [16] stands for this setting: read-out: Cell Protection (EC50).

Like-named read-outs stand apart in the source and are kept apart here.

For `O=c1[nH]c(=O)n([C@@H]2O[C@H](CO)[C@@H](O)[C@@H]2F)cc1I` [FIAU, reference compound], in [1], the lactate came to 3.73 mg/10^6 cell and the “lactate % of Control” value came out at 170.4%.

What is called CC50 is the concentration at which the toxic effect on the cells reaches its halfway point. As to `C[C@@]1(O)[C@H](O)[C@@H](CO)O[C@H]1n1ccc(=O)[nH]c1=O` [β-D-2'-CH3-riboU], the CC50 in [2], in [3] (setting [14]) and in data set [3] (setting [15]) was greater than 250 µM in each case.

For the compound `C[C@@]1(O)[C@H](O)[C@@H](CO)O[C@H]1n1ccc(N)nc1=O` [β-D-2'-CH3-riboC], the CC50 in [2] was 100 µM; in [3] (setting [14]) it was 150 µM; in data set [3] (setting [15]), greater than 250 µM.

By EC50 is commonly meant the concentration giving half of the maximal effect. Regarding `C[C@@]1(O)[C@H](O)[C@@H](CO)O[C@H]1n1cnc2c(=O)[nH]cnc21` [β-D-2′-CH3-riboI], in data set [4] (setting [16]), the EC50 turned out to be 45 µM.

As for `C[C@@]1(O)[C@H](O)[C@@H](COP(=O)(O)OP(=O)(O)OP(=O)(O)O)O[C@H]1n1cnc2c(=O)[nH]c(N)nc21` [β-D-2′-CH3-riboG-TP], the intracellular triphosphate level in [5] (8 h) came to 2.85 pmol/million cells; in data set [5] (24 h), 0.91 pmol/million cells; in data set [5] (30 h), 3.22 pmol/million cells; in data set [5] (48 h) it was 6.26 pmol/million cells.

Turning to `C[C@@]1(O)[C@H](O)[C@@H](COP(=O)(O)OP(=O)(O)OP(=O)(O)O)O[C@H]1n1ccc(N)nc1=O` [β-D-2′-CH3-riboC-TP], the intracellular triphosphate level in data set [5] (2 h) stood at 2.24 pmol/million cells; in [5] (4 h), 3.99 pmol/million cells; in data set [5] (8 h), 9.76 pmol/million cells; in [5] (24 h) it was 34.9 pmol/million cells; in data set [5] (30 h) it was 36.2 pmol/million cells; in data set [5] (48 h) it was 56.4 pmol/million cells.

For the compound `Cc1cn([C@@H]2O[C@H](CO)[C@@H](O)[C@@]2(C)O)c(=O)[nH]c1=O` [β-D-2′-CH3-riboT], the EC50 in data set [4] (setting [16]) was greater than 250 µM.

On to `CC1(O)[C@@H](O)[C@@H](CO)O[C@H]1n1cnc2c(N)ncnc21` (stereo partly drawn) [β-D-2'-CH3-riboA], for which the CC50 in data set [2] is 20 µM; in data set [3] (setting [14]), 50 to 60 µM; in data set [3] (setting [15]), 40 µM.

For `C[C@@]1(O)[C@H](O)[C@@H](COP(=O)(O)OP(=O)(O)OP(=O)(O)O)O[C@H]1n1cnc2c(N)ncnc21` [β-D-2′-CH3-riboA-TP], the intracellular triphosphate level in data set [5] (2 h) came out at 33.1 pmol/million cells; in data set [5] (4 h), 67.7 pmol/million cells; in data set [5] (8 h), 147 pmol/million cells; in data set [5] (24 h) it was 427 pmol/million cells; in [5] (30 h), 456 pmol/million cells; in data set [5] (48 h) it was 288 pmol/million cells.

On to `CC1(O)[C@@H](O)[C@@H](CO)O[C@H]1n1cnc2c(=O)[nH]c(N)nc21` (stereo partly drawn) [β-D-2'-CH3-riboG], for which the values for the CC50 in data set [2], in [3] (setting [14]) and in [3] (setting [15]) were 100 µM, greater than 250 µM and greater than 250 µM, respectively.

Take `C[C@@]1(O)[C@H](O)[C@@H](COP(=O)(O)OP(=O)(O)OP(=O)(O)O)O[C@H]1n1ccc(=O)[nH]c1=O` [β-D-2′-CH3-riboU-TP]: the intracellular triphosphate level in data set [5] (2 h) stood at 0.40 pmol/million cells; in [5] (4 h), 1.21 pmol/million cells; in data set [5] (8 h), 1.57 pmol/million cells; in data set [5] (24 h) it was 6.39 pmol/million cells; in data set [5] (30 h), 7.18 pmol/million cells; in data set [5] (48 h) it was 9.42 pmol/million cells.

One may read the IC50 as the concentration that inhibits the measured activity by half. The EC90 is the concentration at which the effect reaches the 90% level. For `C[C@@]1(O)[C@H](O)[C@@H](CO)O[C@H]1n1ccc(=O)[nH]c1=O` [β-D-2′-CH3-riboU], the IC50 in [6] and in [7] was greater than 100 µM throughout. Further, the EC50 came out at 20 µM in data set [4] (setting [16]), 20 µM in data set [4] (read-out: EC50), 20 µM in data set [10] and 33 µM in [11]. In addition, the EC90 in data set [8] (read-out: EC90) is less than 81 µM; in [8] (read-out: Plaque Reduction (EC90)), less than 81 µM; in data set [9] it was 24 µM. The “Conc. for 6-log Reduction” value in data set [9] came out at 120 μM. For the same compound, the “Yield Reduction 6 log10 reduction (μM)” value in [9] worked out at 120 μM. The CC50 was greater than 250 µM in data set [12]; greater than 100 µM in data set [13]; greater than 100 µM in [13] (read-out: YFV CC50, Table 12, reduce the viability of cells by 50%, YFV-BHK system).

(Values after US20180235993A1 (priority 2000, published 2018).)
